Experimental data as given in patent publication US20120004244A1, “Bis Aromatic Compounds for Use as LTC4 Synthase Inhibitors” (BIOLIPOX AB, priority 2009, published 2012).

Biological target: T1, Recombinant human LTC4 synthase (Homo sapiens, UniProt Q16873)
T1 construct: made in house; host or cells: Pichia pastoris ('Piccia pastoralis' [sic])
T1 sequence (Q16873 1-150): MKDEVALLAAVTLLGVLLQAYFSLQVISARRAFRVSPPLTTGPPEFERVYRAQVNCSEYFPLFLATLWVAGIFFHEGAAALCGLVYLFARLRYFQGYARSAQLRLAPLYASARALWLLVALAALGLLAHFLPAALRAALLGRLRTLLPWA
Assay: LTC4 synthase in vitro assay (LTA4 to LTC4, HTRF detection)
Format: biochemical
Conditions: for inhibition at 3 µM: compound concentration 3 μM; for inhibition at 10 µM: 5 min, total concentration of title compound in the assay 10 μM
Summary of the method: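 Purified recombinant human LTC4 synthase expressed in Pichia (0.5 μg/mL total protein) was preincubated with inhibitor at 10 μM final for 10 min at room temperature in PBS pH 7.4 with 5 mM GSH. LTA4 was then added at 2.5 μM final, and after 5 min at room temperature LTC4 was detected by HTRF.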

| Compound | IC50 | inhibition at 10 µM | inhibition at 3 µM |
| --- | --- | --- | --- |
| COc1c(F)c(F)cc(C(=O)Nc2ccc(C(=O)c3ccc(N(C)c4ccc(Cl)cc4)cn3)cc2C(=O)O)c1F [3:31, 5-{5-[(4-Chlorophenyl)(methyl)amino]picolinoyl}-2-(2,4,5-trifluoro-3-methoxy-benzamido)benzoic acid] | 61 nM |  |  |
| COc1cccc(C(=O)Nc2ccc(C(=O)c3ccc(N(C)c4ccccc4)cn3)cc2C(=O)O)c1 [3:33, 2-(3-Methoxybenzamido)-5-{5-[(methyl)(phenyl)amino]picolinoyl}benzoic acid] | 226 nM |  |  |
| COc1ccc(C(=O)Nc2ccc(C(=O)c3ccc(N(C)c4ccccc4)cn3)cc2C(=O)O)c(OC)c1 [3:34, 2-(2,4-Dimethoxybenzamido)-5-{5-[(methyl)(phenyl)amino]picolinoyl}benzoic acid] | 163 nM |  |  |
| COc1cc(F)c(C(=O)Nc2ccc(C(=O)c3ccc(N(C)c4ccc(Cl)cc4)cn3)cc2C(=O)O)c(F)c1 [3:35, 5-{5-[(4-Chlorophenyl)(methyl)amino]picolinoyl}-2-(2,6-difluoro-4-methoxy-benzamido)benzoic acid] | 73 nM |  |  |
| CN(c1ccc(Cl)cc1)c1ccc(C(=O)c2ccc(NC(=O)c3cccc(Br)c3)c(C(=O)O)c2)nc1 [3:38, 2-(3-Bromobenzamido)-5-{5-[(4-chlorophenyl)(methyl)amino]picolinoyl}benzoic acid] | 68 nM |  |  |
| CN(c1ccc(Cl)cc1)c1ccc(C(=O)c2ccc(NC(=O)c3cccc(C(F)(F)F)c3)c(C(=O)O)c2)nc1 [3:39, 5-{5-[(4-chlorophenyl)(methyl)amino]picolinoyl}-2-(3-trifluoromethylbenzamido)-benzoic acid] | 91 nM |  |  |
| CCCCOc1ccc(S(=O)(=O)Nc2ccc(C(=O)c3ccc(N(C)c4ccc(Cl)cc4)cn3)cc2C(=O)O)cc1 [4:2, 2-(4-Butoxyphenylsulfonamido)-5-{5-[(4-chlorophenyl)(methyl)amino]picolinoyl}-benzoic acid] | 23 nM |  | 100% |
| CN(c1ccc(Cl)cc1)c1ccc(C(=O)c2ccc(C(=O)c3ccccc3)c(C(=O)O)c2)nc1 [5:1, 2-Benzoyl-5-{5-[(4-chlorophenyl)(methyl)amino]picolinoyl}benzoic acid] | 72 nM |  |  |
| CN(c1ccc(C(F)(F)F)cc1)c1ccc(C(=O)c2ccc(C(=O)c3ccccc3)c(C(=O)O)c2)nc1 [5:2, 2-Benzoyl-5-{5-[(methyl)(4-trifluoromethylphenyl)amino]picolinoyl}benzoic acid] | 78 nM |  |  |
| COc1ccc(C(=O)c2ccc(C(=O)c3ccc(N(C)c4ccc(Cl)cc4)cn3)cc2C(=O)O)cc1 [5:3, 5-{5-[(4-Chlorophenyl)(methyl)amino]picolinoyl}-2-(4-methoxybenzoyl)benzoic acid] | 50 nM |  |  |
| COc1ccc(C(=O)c2ccc(C(=O)c3ccc(N(CC(F)(F)F)c4ccc(Cl)cc4F)cn3)cc2C(=O)O)cc1 [5:6, 5-{5-[(4-Chloro-2-fluorophenyl)(2,2,2-trifluoroethyl)amino]picolinoyl}-2-(4-methoxybenzoyl)benzoic acid] | 401 nM |  |  |
| COc1ccccc1C(=O)c1ccc(C(=O)c2ccc(N(C)c3ccc(Cl)cc3)cn2)cc1C(=O)O [5:8, 5-{5-[(4-Chlorophenyl)(methyl)amino]picolinoyl}-2-(2-methoxybenzoyl)benzoic acid] | 154 nM |  |  |
| CCOc1ccc(C(=O)c2ccc(C(=O)c3ccc(N(C)c4ccc(Cl)cc4)cn3)cc2C(=O)O)cc1 [5:9, 5-{5-[(4-Chlorophenyl)(methyl)amino]picolinoyl}-2-(4-ethoxybenzoyl)benzoic acid] | 101 nM |  |  |

Further lines, with some results ahead:

| IC50 | inhibition at 10 µM | Compound | inhibition at 3 µM |
| --- | --- | --- | --- |
| 50 nM |  | CN(c1ccc(Cl)cc1)c1ccc(C(=O)c2ccc(NC(=O)c3cccc4c3OCO4)c(C(=O)O)c2)nc1 [3:28, 5-{5-[(4-Chlorophenyl)(methyl)amino]picolinoyl}-2-(2,3-methylenedioxy-benzamido)benzoic acid] |  |
| 12 nM |  | COc1cc(OC)cc(C(=O)Nc2ccc(C(=O)c3ccc(N(C)c4ccc(Cl)cc4)cn3)cc2C(=O)O)c1 [3:29, 5-{5-[(4-Chlorophenyl)(methyl)amino]picolinoyl}-2-(3,5-dimethoxybenzamido)-benzoic acid] |  |
| 26 nM |  | COc1cccc(F)c1C(=O)Nc1ccc(C(=O)c2ccc(N(C)c3ccc(Cl)cc3)cn2)cc1C(=O)O [3:30, 5-{5-[(4-Chlorophenyl)(methyl)amino]picolinoyl}-2-(2-fluoro-6-methoxybenz-amido)benzoic acid] |  |
| 42 nM |  | COc1ccc(C(=O)Nc2ccc(C(=O)c3ccc(N(C)c4ccc(Cl)cc4)cn3)cc2C(=O)O)c(C)c1 [3:32, 5-{5-[(4-Chlorophenyl)(methyl)amino]picolinoyl}-2-(4-methoxy-2-methylbenz-amido)benzoic acid] |  |
| 39 nM |  | COc1ccc(C(=O)Nc2ccc(C(=O)c3ccc(N(C)c4ccc(Cl)cc4)cn3)cc2C(=O)O)c(Cl)c1OC [3:36, 2-(2-Chloro-3,4-dimethoxybenzamido)-5-{5-[(4-chlorophenyl)(methyl)amino]-picolinoyl}benzoic acid] |  |
| 21 nM |  | COc1cccc(C(=O)Nc2ccc(C(=O)c3ccc(N(C)Cc4ccc(Cl)cc4)cn3)cc2C(=O)O)c1 [3:37, 5-{5-[(4-Chlorobenzyl)(methyl)amino]picolinoyl}-2-(3-methoxybenzamido)-benzoic acid] |  |
| 39 nM |  | CN(c1ccc(Cl)cc1)c1ccc(C(=O)c2ccc(NS(=O)(=O)c3ccccc3)c(C(=O)O)c2)nc1 [4:1, 5-{5-[(4-Chlorophenyl)(methyl)amino]picolinoyl}-2-(phenylsulfonamido)benzoic acid] | 100% |
| 40 nM | 99% | CN(c1ccc(Cl)cc1)c1ccc(C(=O)c2ccc(NS(=O)(=O)c3cccs3)c(C(=O)O)c2)nc1 [4:3, 5-{5-[(4-Chlorophenyl)(methyl)amino]picolinoyl}-2-(2-thienylsulfonamido)benzoic acid] |  |
| 43 nM | 100% | CN(c1ccc(Cl)cc1)c1ccc(C(=O)c2ccc(NS(=O)(=O)c3ccc(C(F)(F)F)cc3)c(C(=O)O)c2)nc1 [4:4, 5-{5-[(4-Chlorophenyl)(methyl)amino]picolinoyl}-2-(4-trifluoromethylphenylsulfon-amido)benzoic acid] |  |
| 33 nM | 100% | CN(c1ccc(Cl)cc1)c1ccc(C(=O)c2ccc(NS(=O)(=O)c3ccc(Cl)cc3)c(C(=O)O)c2)nc1 [4:5, 5-{5-[(4-Chlorophenyl)(methyl)amino]picolinoyl}-2-(4-chlorophenylsulfonamido)-benzoic acid] |  |
| 17 nM |  | O=C(c1ccc(NS(=O)(=O)c2ccc(Cl)cc2)c(C(=O)O)c1)c1ccc(N(CC2CC2)c2ccc(Cl)cc2)cn1 [4:6, 2-(4-Chlorophenylsulfonamido)-5-{5-[(4-chlorophenyl)(cyclopropylmethyl)-amino]picolinoyl}benzoic acid] |  |
| 29 nM |  | COc1ccc(C(=O)c2ccc(C(=O)c3ccc(N(CC4CC4)c4ccc(Cl)cc4)cn3)cc2C(=O)O)cc1 [5:4] |  |
| 46 nM |  | COc1ccc(C(=O)c2ccc(C(=O)c3ccc(N(CC4CC4)c4ccc(Cl)cc4F)cn3)cc2C(=O)O)cc1 [5:5] |  |
| 36 nM |  | COc1cccc(C(=O)c2ccc(C(=O)c3ccc(N(C)c4ccc(Cl)cc4)cn3)cc2C(=O)O)c1 [5:7, 5-{5-[(4-Chlorophenyl)(methyl)amino]picolinoyl}-2-(3-methoxybenzoyl)benzoic acid] |  |
